IC50 data for 23 compounds are collected here from patent publication US8975398B2, “NAMPT inhibitors” (AbbVie Inc., priority 2012, dated 2015).

For assay [1], the target named is NAMPT (human, recombinant, C-terminally His-tagged) (Homo sapiens, UniProt P43490). In words: Time-Resolved Fluorescence Resonance Energy Transfer (TR-FRET) Binding Assay of NAMPT. The settings on record: 6.8 nM NAMPT, 200 nM probe, equilibrated 3 hours, absence of substrates. The method in brief:
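Recombinant C-terminally His-tagged human NAMPT (6.8 nM) incubated 3 h at room temperature with 200 nM Oregon Green 488–labelled nicotinamide-competitive probe and 1 nM Tb-anti-His antibody in HEPES pH 7.5, 2% DMSO. TR-FRET ratio Em520/Em495 normalized to controls; IC50 from four-parameter logistic fit.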

The next assay concerns the target NAMPT (Homo sapiens, UniProt P43490). Kind of assay: Time-Resolved Fluorescence Resonance Energy Transfer (TR-FRET) Binding Assay of NAMPT with PRPP. Particulars: 2 nM NAMPT, 2 nM probe, 200 uM PRPP and 2.5 mM ATP, equilibrated 16 hours. The method in brief: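 Final mix: 2 nM NAMPT, 2 nM probe, 1 nM Tb-anti-His antibody, 200 uM PRPP, 2.5 mM ATP, 2% DMSO in 1× assay buffer. Equilibrated 16 hours before TR-FRET read, allowing possible enzymatic modification of compounds.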
On the technique in general: In TR-FRET formats the signal depends on donor and acceptor labels being close together.

Chain of NAMPT (human, recombinant, C-terminally His-tagged) (P43490 whole entry): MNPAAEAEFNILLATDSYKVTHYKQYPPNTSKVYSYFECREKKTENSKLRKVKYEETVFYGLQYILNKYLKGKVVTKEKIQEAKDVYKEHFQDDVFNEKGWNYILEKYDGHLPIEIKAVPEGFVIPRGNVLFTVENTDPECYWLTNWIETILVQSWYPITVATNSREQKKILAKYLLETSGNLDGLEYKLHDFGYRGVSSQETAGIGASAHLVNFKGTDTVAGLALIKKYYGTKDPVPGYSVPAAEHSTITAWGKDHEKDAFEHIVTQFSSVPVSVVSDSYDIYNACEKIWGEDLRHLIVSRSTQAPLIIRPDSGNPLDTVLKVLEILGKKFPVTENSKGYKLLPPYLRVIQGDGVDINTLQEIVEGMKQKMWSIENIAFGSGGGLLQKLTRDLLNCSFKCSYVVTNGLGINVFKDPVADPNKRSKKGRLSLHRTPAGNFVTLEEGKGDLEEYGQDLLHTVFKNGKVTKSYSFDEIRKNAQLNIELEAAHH
Chain of NAMPT (P43490 whole entry): as above

A word on the IC50: it is the point on the concentration scale where inhibition reaches its midpoint. On to `CCC(CC)CN1CCC(Oc2ccc(NC(=O)C3CN(c4cccnc4)C3)cc2)CC1` [Example 78, N-(4-{[1-(2-ethylbutyl)piperidin-4-yl]oxy}phenyl)-1-(pyridin-3-yl)azetidine-3-carboxamide], for which the IC50 in assay [1] came to 265 nM; at NAMPT, 0.632 nM.

Turning to `CC(C)(C)CN1CCC(Oc2ccc(NC(=O)C3CN(c4cccnc4)C3)cc2)CC1` [Example 79, N-(4-{[1-(2,2-dimethylpropyl)piperidin-4-yl]oxy}phenyl)-1-(pyridin-3-yl)azetidine-3-carboxamide], the half-maximal inhibitory concentration (IC50) was determined as 2690 nM in assay [1] and 0.824 nM at NAMPT.

With `CCC(C)CN1CCC(Oc2ccc(NC(=O)C3CN(c4cccnc4)C3)cc2)CC1` (stereo not shown) [Example 80, N-(4-{[1-(2-methylbutyl)piperidin-4-yl]oxy}phenyl)-1-(pyridin-3-yl)azetidine-3-carboxamide], the IC50 in assay [1] turned out to be 1600 nM; at NAMPT it was 0.686 nM.

For `CCCN1CCC(Oc2ccc(NC(=O)C3CN(c4cccnc4)C3)cc2)CC1` [Example 81, N-{4-[(1-propylpiperidin-4-yl)oxy]phenyl}-1-(pyridin-3-yl)azetidine-3-carboxamide], the values for the IC50 (in assay [1]; on NAMPT) were 3720 nM and 1.13 nM, respectively.

As for `O=C(Nc1ccc(OC2CCN(CCC3CC3)CC2)cc1)C1CN(c2cccnc2)C1` [Example 82, N-(4-{[1-(2-cyclopropylethyl)piperidin-4-yl]oxy}phenyl)-1-(pyridin-3-yl)azetidine-3-carboxamide], the IC50 in assay [1] stood at 955 nM; on NAMPT, 0.526 nM.

Regarding `O=C(Nc1ccc(OC2CCN(CC3CCOC3)CC2)cc1)C1CN(c2cccnc2)C1` (stereo not shown) [Example 83, 1-(pyridin-3-yl)-N-(4-{[1-(tetrahydrofuran-3-ylmethyl)piperidin-4-yl]oxy}phenyl)azetidine-3-carboxamide], the half-maximal inhibitory concentration (IC50) in assay [1] came out at 1210 nM; on NAMPT it was 0.503 nM.

Take `CCC(C)(C)CN1CCC(Oc2ccc(NC(=O)C3CN(c4cccnc4)C3)cc2)CC1` [Example 84, N-(4-{[1-(2,2-dimethylbutyl)piperidin-4-yl]oxy}phenyl)-1-(pyridin-3-yl)azetidine-3-carboxamide]: the IC50 in assay [1] was 6070 nM; on NAMPT it was 1.81 nM.

On to `CC(C)(O)C(=O)N1CCC(c2ccc(NC(=O)C3CN(c4ccnnc4)C3)cc2)CC1` [Example 85, N-{4-[1-(2-hydroxy-2-methylpropanoyl)piperidin-4-yl]phenyl}-1-(pyridazin-4-yl)azetidine-3-carboxamide], for which the IC50 in assay [1] worked out at 32.2 nM; at NAMPT, 17 nM.

As to `O=C(Nc1ccc(C2CCN(CC3CCCCC3)CC2)cc1)C1CN(c2cccnc2)C1` [Example 86, N-{4-[1-(cyclohexylmethyl)piperidin-4-yl]phenyl}-1-(pyridin-3-yl)azetidine-3-carboxamide], the IC50 in assay [1] turned out to be 1260 nM; on NAMPT, 0.833 nM.

On to `CC(C)(C)CCN1CCC(c2ccc(NC(=O)C3CN(c4cccnc4)C3)cc2)CC1` [Example 87, N-{4-[1-(3,3-dimethylbutyl)piperidin-4-yl]phenyl}-1-(pyridin-3-yl)azetidine-3-carboxamide], for which the IC50 in assay [1] was 1390 nM; at NAMPT, 1.27 nM.

Take `O=C(Nc1ccc(C2CCN(CC3CCCC3)CC2)cc1)C1CN(c2cccnc2)C1` [Example 88, N-{4-[1-(cyclopentylmethyl)piperidin-4-yl]phenyl}-1-(pyridin-3-yl)azetidine-3-carboxamide]: the values for the IC50 (in assay [1]; on NAMPT) were 574 nM and 0.64 nM, respectively.

For `CCC(C)(C)CN1CCC(c2ccc(NC(=O)C3CN(c4cccnc4)C3)cc2)CC1` [Example 89, N-{4-[1-(2,2-dimethylbutyl)piperidin-4-yl]phenyl}-1-(pyridin-3-yl)azetidine-3-carboxamide], the IC50 was determined as 2000 nM in assay [1] and 0.647 nM on NAMPT.

As for `CCCC(C)CN1CCC(c2ccc(NC(=O)C3CN(c4cccnc4)C3)cc2)CC1` (stereo not shown) [Example 90, N-{4-[1-(2-methylpentyl)piperidin-4-yl]phenyl}-1-(pyridin-3-yl)azetidine-3-carboxamide], the IC50 in assay [1] was 1410 nM; on NAMPT, 0.902 nM.

As for `CCCCN1CCC(c2ccc(NC(=O)C3CN(c4cccnc4)C3)cc2)CC1` [Example 91, N-[4-(1-butylpiperidin-4-yl)phenyl]-1-(pyridin-3-yl)azetidine-3-carboxamide], the 50% inhibitory concentration (IC50) in assay [1] amounted to 992 nM; at NAMPT it was 0.868 nM.

`CCC(CC)CN1CCC(c2ccc(NC(=O)C3CN(c4cccnc4)C3)cc2)CC1` [Example 92, N-{4-[1-(2-ethylbutyl)piperidin-4-yl]phenyl}-1-(pyridin-3-yl)azetidine-3-carboxamide]: the IC50 in assay [1] was found to be 784 nM; at NAMPT, 0.548 nM.

Turning to `CC(C)CCN1CCC(c2ccc(NC(=O)C3CN(c4cccnc4)C3)cc2)CC1` [Example 93, N-{4-[1-(3-methylbutyl)piperidin-4-yl]phenyl}-1-(pyridin-3-yl)azetidine-3-carboxamide], the IC50 was found to be 1220 nM in assay [1] and 1.25 nM at NAMPT.

Take `CC(C)CN1CCC(c2ccc(NC(=O)C3CN(c4cccnc4)C3)cc2)CC1` [Example 94, N-{4-[1-(2-methylpropyl)piperidin-4-yl]phenyl}-1-(pyridin-3-yl)azetidine-3-carboxamide]: the IC50 came out at 2270 nM in assay [1] and 1.03 nM at NAMPT.

Take `CCCN1CCC(c2ccc(NC(=O)C3CN(c4cccnc4)C3)cc2)CC1` [Example 95, N-[4-(1-propylpiperidin-4-yl)phenyl]-1-(pyridin-3-yl)azetidine-3-carboxamide]: the 50% inhibitory concentration (IC50) in assay [1] was 1360 nM; at NAMPT, 1.02 nM.

With `COc1ccncc1N1CC(C(=O)Nc2ccc(C3CCN(C(=O)C(C)(C)O)CC3)cc2)C1` [Example 96, N-{4-[1-(2-hydroxy-2-methylpropanoyl)piperidin-4-yl]phenyl}-1-(4-methoxypyridin-3-yl)azetidine-3-carboxamide], the values for the IC50 (in assay [1]; at NAMPT) were 115 nM and 282 nM, respectively.

With `CC(C)(O)C(=O)N1CCC(c2ccc(NC(=O)C3CN(c4cnccc4C#N)C3)cc2)CC1` [Example 97, 1-(4-cyanopyridin-3-yl)-N-{4-[1-(2-hydroxy-2-methylpropanoyl)piperidin-4-yl]phenyl}azetidine-3-carboxamide], the IC50 amounted to 36.6 nM in assay [1] and 131 nM on NAMPT.

As for `CCCCC(=O)N1CCC(c2ccc(NC(=O)C3CN(c4cccnc4)C3)cc2)CC1` [Example 98, N-[4-(1-pentanoylpiperidin-4-yl)phenyl]-1-(pyridin-3-yl)azetidine-3-carboxamide], the IC50 in assay [1] was 13 nM; at NAMPT, 0.209 nM.

Consider `CCC(C)CC(=O)N1CCC(c2ccc(NC(=O)C3CN(c4cccnc4)C3)cc2)CC1` (stereo not shown) [Example 99, N-{4-[1-(3-methylpentanoyl)piperidin-4-yl]phenyl}-1-(pyridin-3-yl)azetidine-3-carboxamide], for which the half-inhibitory concentration (IC50) in assay [1] worked out at 13.5 nM; on NAMPT it was 0.169 nM.

Consider `O=C(Nc1ccc(C2CCN(C(=O)CC3C[C@@H]4CC[C@H]3C4)CC2)cc1)C1CN(c2cccnc2)C1` (stereo partly drawn) [Example 100, N-(4-{1-[(1S,4R)-bicyclo[2.2.1]hept-2-ylacetyl]piperidin-4-yl}phenyl)-1-(pyridin-3-yl)azetidine-3-carboxamide], for which the IC50 came to 30.6 nM in assay [1] and 0.497 nM at NAMPT.
